Measured values taken from ChEMBL document CHEMBL3259776, “Discovery and optimization of indazoles as potent and selective interleukin-2 inducible T cell kinase (ITK) inhibitors” (Bioorg Med Chem Lett, 2014).

Key:
[1] = target: T1, Tyrosine-protein kinase ITK/TSK (Homo sapiens, UniProt Q08881)
T1 sequence (Q08881 whole entry): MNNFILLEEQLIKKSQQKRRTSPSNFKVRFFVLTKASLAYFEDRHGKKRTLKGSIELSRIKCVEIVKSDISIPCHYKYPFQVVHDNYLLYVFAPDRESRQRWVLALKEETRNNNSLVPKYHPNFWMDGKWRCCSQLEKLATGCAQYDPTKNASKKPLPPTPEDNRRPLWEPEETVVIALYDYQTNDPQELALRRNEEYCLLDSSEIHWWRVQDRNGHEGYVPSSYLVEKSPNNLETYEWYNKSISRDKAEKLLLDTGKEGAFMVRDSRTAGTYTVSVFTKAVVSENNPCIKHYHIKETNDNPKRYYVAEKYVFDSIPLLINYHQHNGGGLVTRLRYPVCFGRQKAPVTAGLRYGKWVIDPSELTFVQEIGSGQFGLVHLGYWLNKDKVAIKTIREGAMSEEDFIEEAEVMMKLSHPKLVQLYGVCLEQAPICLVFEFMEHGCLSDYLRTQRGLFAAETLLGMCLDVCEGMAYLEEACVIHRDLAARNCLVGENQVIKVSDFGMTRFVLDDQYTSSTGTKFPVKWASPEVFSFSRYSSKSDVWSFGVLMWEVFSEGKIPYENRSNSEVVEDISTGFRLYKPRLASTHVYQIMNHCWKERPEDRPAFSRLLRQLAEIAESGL

[2] = Oral bioavailability in rat at 5 mg/kg; type: ADME, organism-based; details: in vivo
[3] = Lipophilicity, log D of the compound at pH 7.4; details: buffer
[4] = Half life in rat at 5 mg/kg, po; type: ADME, organism-based; set-up: dose 5 mg/kg, route oral; details: in vivo
[5] = Clearance in rat at 1 mg/kg, iv; type: ADME, organism-based; set-up: dose 1 mg/kg, route intravenous; details: in vivo
[6] = Half life in rat at 1 mg/kg, iv; type: ADME, organism-based; set-up: dose 1 mg/kg, route intravenous; details: in vivo
[7] = AUC in rat at 1 mg/kg, iv; type: ADME, organism-based; set-up: dose 1 mg/kg, route intravenous; details: plasma

SMILES	Ki [1] [nM]	bioavailability [2] [%]	logD [3]	half-life [4] [h]	clearance [5] [mL/min/kg]	half-life [6] [h]	AUC [7] [µM·h]
O=C(Nc1ncc(Cc2ccccc2)o1)c1n[nH]c2ccccc12	> 4						
CC(C)(O)[C@@H](c1ccccc1)n1cc(NC(=O)c2n[nH]c3cc(-c4cn[nH]c4)ccc23)cn1		9	3.4	2.6	11	1.8	2.5
O=C(Nc1ncc(Cc2ccccc2)s1)c1n[nH]c2ccccc12	> 4						
CN(C)CC[C@@H](c1ccccc1)n1cc(NC(=O)c2n[nH]c3cc(-c4cn[nH]c4)ccc23)cn1		0			44	5.7	0.837
